For 21 compounds, IC50 results are on record in patent US11512053B2, “Arginine methyltransferase inhibitors and uses thereof” (priority 2013, dated 2022).

What is called IC50 is the concentration at which inhibition is half-maximal. A lower IC50 goes with inhibition by little substance.

The first experiment deals with T1, human CARM1 (PRMT4) (Flag- and His-tagged) (Homo sapiens, UniProt Q86X55).
T1 construct: Flag-CARM1-His; made in house; host or cells: HEK 293F cells (BacMam baculovirus)
T1 sequence (Q86X55 1-585 isoform Q86X55-1): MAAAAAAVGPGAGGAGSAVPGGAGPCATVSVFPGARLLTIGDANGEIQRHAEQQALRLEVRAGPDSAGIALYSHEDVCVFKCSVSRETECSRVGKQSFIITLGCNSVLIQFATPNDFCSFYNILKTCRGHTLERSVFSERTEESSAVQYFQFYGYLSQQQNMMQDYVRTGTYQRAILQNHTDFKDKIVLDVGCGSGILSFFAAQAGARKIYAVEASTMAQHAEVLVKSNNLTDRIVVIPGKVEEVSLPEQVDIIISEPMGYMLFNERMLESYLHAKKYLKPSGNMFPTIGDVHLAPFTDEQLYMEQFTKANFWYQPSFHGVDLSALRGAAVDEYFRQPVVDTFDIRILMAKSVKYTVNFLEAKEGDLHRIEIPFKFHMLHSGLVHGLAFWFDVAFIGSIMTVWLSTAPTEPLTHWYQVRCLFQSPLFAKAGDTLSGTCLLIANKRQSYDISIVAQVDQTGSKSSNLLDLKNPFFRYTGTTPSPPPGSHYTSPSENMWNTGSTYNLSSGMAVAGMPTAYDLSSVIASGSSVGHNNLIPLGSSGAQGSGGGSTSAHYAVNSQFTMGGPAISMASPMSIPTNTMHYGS
The experiment can be described thus: CARM1 Biochemical Assay (3H-SAM Flashplate, peptide substrate).
Details: not given
The text has this:
General Materials. S-adenosylmethionine (SAM), S-adenosylhomocysteine (SAH), bicine, Tween20, dimethylsulfoxide (DMSO), bovine skin gelatin (BSG), sodium butyrate and Tris(2-carboxyethyl)phosphine hydrochloride solution (TCEP) were purchased from Sigma-Aldrich at the highest level of purity possible. ^3H-SAM was purchase from American Radiolabeled Chemicals with a specific activity of 80 Ci/mmol. 384-well streptavidin Flashplates were purchased from PerkinElmer.
Substrates. Peptide representative of human histone H3 residues 16-30 was synthesized with an N-terminal linker-affinity tag motif and a C-terminal amide cap by 21st Century Biochemicals. The peptide was purified by high-performance liquid chromatography (HPLC) to greater than 95% purity and confirmed by liquid chromatography mass spectrometry (LC-MS). The sequence was Biot-Ahx-[…]-amide and contained a monomethylated arginine at position 26 (SEQ ID NO.:14).
Molecular Biology: Human CARM1 (PRMT4) (NM_199141.1) transcript clone was amplified from an HEK 293 cDNA library, incorporating a flanking 5′ sequence encoding a FLAG tag ([…]) (SEQ ID NO.:6) fused directly to Ala 2 of CARM1 and 3′ sequence encoding a hexa His sequence ([…]) (SEQ ID NO.:15) fused directly to Ser 608. The gene sequence encoding isoform1 containing a deletion of amino acids 539-561 was amplified subsequently and subcloned into pFastBacMam (Viva Biotech).
Protein Expression. Recombinant baculovirus were generated according to Bac-to-Bac kit instructions (Life Technologies). […] Infections were carried out at 37° C. for 48 hours, harvested by centrifugation, and stored at −80° C. for purification.
Protein Purification. […] Column was washed with 500 mM NaCl in buffer A and Flag-CARM1-His was eluted with 200 ug/ml FLAG peptide in buffer A. Pooled fractions were dialyzed in 20 mM Tris, 150 mM NaCl, 5% glycerol and 1 mM DTT, pH 7.8. The purity of recovered protein was 94.
General Procedure for CARM1 Enzyme Assays on Peptide Substrates. The assays were all performed in a buffer consisting of 20 mM Bicine (pH=7.6), 1 mM TCEP, 0.005% BSG, and 0.002% Tween 20, prepared on the day of use. Compounds in 100% DMSO (1 ul) were spotted into a polypropylene 384-well V-bottom plates (Greiner) using a Platemate Plus outfitted with a 384-channel head (Thermo Scientific). DMSO (1 ul) was added to Columns 11, 12, 23, 24, rows A-H for the maximum signal control and 1 ul of SAH, a known product and inhibitor of CARM1, was added to columns 11, 12, 23, 24, rows I-P for the minimum signal control. A cocktail (40 ul) containing the CARM1 enzyme was added by Multidrop Combi (Thermo-Fisher). The compounds were allowed to incubate with CARM1 for 30 min at room temperature, then a cocktail (10 ul) containing ^3H-SAM and peptide was added to initiate the reaction (final volume=51 ul). The final concentrations of the components were as follows: CARM1 was 0.25 nM, ^3H-SAM was 30 nM, peptide was 250 nM, SAH in the minimum signal control wells was 1 mM, and the DMSO concentration was 2%. The assays were stopped by the addition of non-radiolabeled SAM (10 ul) to a final concentration of 300 uM, which dilutes the ^3H-SAM to a level where its incorporation into the peptide substrate is no longer detectable. 50 ul of the reaction in the 384-well polypropylene plate was then transferred to a 384-well Flashplate and the biotinylated peptides were allowed to bind to the streptavidin surface for at least 1 hour before being washed once with 0.1% Tween20 in a Biotek ELx405 plate washer. The plates were then read in a PerkinElmer TopCount plate reader to measure the quantity of ^3H-labeled peptide bound to the Flashplate surface, measured as disintegrations per minute (dpm) or alternatively, referred to as counts per minute (cpm).
Where dpm=disintegrations per minute, cmpd=signal in assay well, and min and max are the respective minimum and maximum signal controls. […]
In turn, `CN(CCN)Cc1c[nH]nc1C1=CCOCC1` [Compound 10] showed an IC50 of over 10000 nM.

Compound `CN(CCN)Cc1c[nH]nc1C1CC1` [Compound 12] registered an IC50 of over 10000 nM. `CC(C)c1n[nH]cc1CN(C)CCN` [Compound 21] yielded an IC50 of over 10000 nM.

The same experiment, now with this note: single experiment or average of multiple experiments.
For `CNCCN(C)Cc1c[nH]nc1C#Cc1cccc(OC)c1` [Compound 1], 260 nM corresponded to half-maximal inhibition (IC50). In the case of `CNCCN(C)Cc1c[nH]nc1C#Cc1ccc(C(C)(C)C)cc1` [Compound 2], the IC50 is 110 nM.

`CNCCN(C)Cc1c[nH]nc1C#Cc1ccc(F)cc1` [Compound 4]: the IC50 stood at 500 nM. The same measure, in the same setting: the same measure for `CNCCN(C)Cc1c[nH]nc1/C=C/c1ccc(-c2ccccc2)cc1` [Compound 5]: 310 nM; for `CNCCN(C)Cc1c[nH]nc1/C=C/c1ccc(C(F)(F)F)cc1` [Compound 6]: 570 nM; for `CNCCN(C)Cc1c[nH]nc1/C=C/c1ccc(OC)cc1` [Compound 7]: 90 nM. Turning to `Cc1ccc(/C=C/c2n[nH]cc2CN(C)CCN)cc1` [Compound 8], the half-inhibitory concentration (IC50) amounted to 370 nM. With `CN(CCN)Cc1c[nH]nc1C1=CCOCC1` [Compound 10], the IC50 is over 10000 nM. The compound `COc1cc(/C=C/c2n[nH]cc2CN(C)CCN)cc(OC)c1` [Compound 11] had an IC50 of 50 nM. Turning to `CN(CCN)Cc1c[nH]nc1C1CC1` [Compound 12], the IC50 was over 10000 nM. Same read-out and setting: the same measure for `CN(CCN)Cc1c[nH]nc1/C=C/c1ccc(F)cc1F` [Compound 13]: 200 nM.

In the case of `CN(CCN)Cc1c[nH]nc1/C=C/c1cc(C(F)(F)F)cc(C(F)(F)F)c1` [Compound 14], it took 510 nM to reach half-maximal inhibition (IC50). The same measure, in the same setting: the same measure for `CN(CCN)Cc1c[nH]nc1/C=C/c1cc(F)cc(F)c1` [Compound 15]: 310 nM. As for `CN(CCN)Cc1c[nH]nc1/C=C/c1cccc(C(F)(F)F)c1` [Compound 16], the midpoint of inhibition, the IC50, lay at 110 nM. Consider `COc1cccc(/C=C/c2n[nH]cc2CN(C)CCN)c1` [Compound 17], for which 90 nM corresponded to half-maximal inhibition (IC50). In turn, `CN(CCN)Cc1c[nH]nc1/C=C/c1ccc(C(F)(F)F)cc1` [Compound 18] had an IC50 of 100 nM. `COC/C=C/c1n[nH]cc1CN(C)CCN` [Compound 19] had an IC50 of 3780 nM. Still for that read-out and setting: in the case of `CN(CCN)Cc1c[nH]nc1/C=C/c1cccc(F)c1` [Compound 20] it was 250 nM.

Take `CC(C)c1n[nH]cc1CN(C)CCN` [Compound 21]: the IC50 is over 10000 nM. `CN(CCN)Cc1c[nH]nc1C1CCCCC1` [Compound 22]: the IC50 was 3770 nM. In turn, `CN(CCN)Cc1c[nH]nc1CCc1ccc(F)cc1` [Compound 23, N^1-((3-(4-fluorophenethyl)-1H-pyrazol-4-yl)methyl)-N^1-methylethane-1,2-diamine] had an IC50 of 2780 nM.
